# Experimental data from US20090270612A1, “Therapeutic Agent for Osteoporosis Using a Retinoid X Receptor-Related Compound” (priority 2005, published 2009).
# Test system: OPG knockout mice
# Experiment: Bone morphometry of lumbar trabecular bone and femoral cortical bone in OPG knockout mice given drug in feed
# Type: in vivo, mouse
# Conditions: 0.03% drug in paste feed, 4 weeks
# Procedure: OPG knockout mice (6 week-old) were divided into 3 groups with 7 mice being prepared for each group. These mice were obtained from CLEA Japan, Inc. and categorized into three groups: control group (Cont), HX531 group (HX), and LE 135 group (LE). LE135 is a compound synthesized as a nuclear receptor […] (RAR) antagonist.
# Paste feed is prepared by adding sterile water into and softening sterilized pellets in a dish. HX531 group and LE135 group were provided with the paste feed in which a corresponding drug was mixed. The amount of feed provided per day was fixed at 3 g per mouse in a solid state. The amount of drugs was calculated at 0.03% to the feed weight. Although the paste feed was exchanged everyday, almost no feed was left in all groups. A drug was administered successively for 4 weeks, and mice were double-labeled with tetracyclines and calceins by an abdominal administration 4 days and 2 days before they were sacrificed.
# While bone morphometry of femur (cortical bone) and lumbar (trabecular bone) was conducted, a histological observation of femur was made. Furthermore, a blood sample was taken before the sacrifice to measure a bone formation marker.
smiles,measurement,setting,value
CN1c2ccc([N+](=O)[O-])cc2N=C(c2ccc(C(=O)O)cc2)c2cc3c(cc21)C(C)(C)CCC3(C)C [HX531],bone mass in a lumbar trabecular bone by bone morphometry,FIG. 1,large compared to the mice from the control group or mice provided with LE135
same,trabecula number in a lumbar trabecular bone by bone morphometry,FIG. 2,large compared to the mice from the control group or mice provided with LE135
same,bone resorption rate in a lumbar trabecular bone by bone morphometry,FIG. 7,significantly low
same,osteoclast surface in a lumbar trabecular bone by bone morphometry,FIG. 8,small compared to the mice from the control group
same,rarefaction surface/cortical bone in a femoral cortical bone by bone morphometry,FIG. 11,significantly low compared to the mice from the control group
same,porous surface in a femoral cortical bone by bone morphometry,FIG. 12,small
